These molecules were tested against T1, mouse Nurr1 receptor (Mus musculus, UniProt Q06219) (assay: In vitro activity on N2A cells (NBRE-luciferase reporter)). Conditions: N2A-8NBRE cells, 24 hours incubation.
T1 construct: a cell line (N2A) endogenously expressing the mouse Nurr1 receptor; host or cells: Neuro-2A (N2A) mouse neuroblastoma cells stably transfected with 8NBRE-luciferase
T1 sequence (Q06219 whole entry): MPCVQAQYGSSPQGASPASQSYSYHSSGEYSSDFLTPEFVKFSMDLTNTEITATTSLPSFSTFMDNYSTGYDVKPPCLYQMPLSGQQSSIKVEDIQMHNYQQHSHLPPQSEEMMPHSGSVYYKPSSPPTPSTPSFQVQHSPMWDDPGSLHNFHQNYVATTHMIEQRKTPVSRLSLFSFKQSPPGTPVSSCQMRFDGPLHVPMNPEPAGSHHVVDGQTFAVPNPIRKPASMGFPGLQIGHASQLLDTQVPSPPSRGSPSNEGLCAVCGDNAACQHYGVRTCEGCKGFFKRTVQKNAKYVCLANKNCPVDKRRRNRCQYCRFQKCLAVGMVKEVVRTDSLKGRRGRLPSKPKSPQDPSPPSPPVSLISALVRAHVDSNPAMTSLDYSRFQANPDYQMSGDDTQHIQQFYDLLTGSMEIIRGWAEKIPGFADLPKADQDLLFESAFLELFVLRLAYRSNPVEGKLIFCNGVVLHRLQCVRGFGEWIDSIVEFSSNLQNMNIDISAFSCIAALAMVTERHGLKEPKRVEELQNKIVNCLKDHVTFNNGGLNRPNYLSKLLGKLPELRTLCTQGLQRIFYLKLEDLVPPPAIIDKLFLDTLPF
Format: cell-based
Procedure: The activity of the compounds according to the invention was evaluated on a cell line (N2A) endogenously expressing the mouse Nurr1 receptor and stably transfected with the NOT binding response element (NBRE) coupled to the luciferase reporter gene. The EC50 values are between 0.01 and 1000 nM. The tests were carried out according to the procedure described below.
The Neuro-2A cell line comes from a standard commercial source (ATCC). The Neuro-2A clone was obtained from a spontaneous tumour originating from a mouse A albino strain produced by R. J Klebe et al. This Neuro-2A line is subsequently stably transfected with 8NBRE-luciferase. The N2A-8NBRE cells are cultured at a confluence in 75 cm^2 culture flasks containing DMEM supplemented with 10% of foetal calf serum, 4.5 g/l of glucose and 0.4 mg/ml of geneticin. After one week of culture, the cells are recovered with 0.25% trypsin for 30 seconds, and then resuspended in DMEM without phenol red, containing 4.5 g/l of glucose and 10% of Hyclone defatted serum, and deposited in white, transparent-bottom, 96-well plates. The cells are deposited in a proportion of 60 000 per well in 75 μl for 24 hours before the addition of the products. The products are applied in 25 μl and incubated for a further 24 hours. On the day of the measurement, an equivalent volume (100 μl) of Steadylite, is added to each well, followed by a waiting period of 30 minutes in order to obtain complete lysis of the cells and maximum production of the signal. The plates are then measured in a microplate luminescence counter after having been sealed with an adhesive film. The products are prepared in the form of a stock solution at 10^−2 M, and then diluted in 100% of DMSO. Each product concentration is diluted beforehand in culture medium before incubation with the cells thus containing a final concentration of 0.625% of DMSO.
`Nc1cccc(-c2ccc3nc(C(=O)c4ccccc4)cn3c2)n1` [Compound 1, [6-(6-Aminopyridin-2-yl)imidazo[1,2-a]pyridin-2-yl](phenyl)-methanone] gave an EC50 of 0.7 nM. In the case of `O=C(c1ccccc1)c1cn2cc(-c3cn[nH]c3)ccc2n1` [Compound 4, Phenyl[6-(1H-pyrazol-4-yl)imidazo[1,2-a]pyridin-2-yl]methanone], the EC50 is reported as 0.5 nM. In the case of `O=C(c1ccccc1)c1cn2cc(-c3cccnc3)ccc2n1` [Compound 7, phenyl[(6-pyridin-3-yl)imidazo[1,2-a]pyridin-2-yl]methanone], the EC50 is reported as 0.5 nM.

Source: patent US20100317687A1, “2-BENZOYLIMIDAZO[1,2-a]PYRIDINE DERIVATIVES, PREPARATION THEREOF AND THERAPEUTIC USE THEREOF” (sanofi-aventis, priority 2008, published 2010)
